One test has as its system IL-17A. Nature of the test: Cytokine assay, human PBMC stimulated with PHA: IL-17A. The note with it: PHA-activated, 48 hours, read-out: IL-17A inhibition (IC50 range). The class given is cell-based.
The test system of test [1] is prostate cancer cell line 22RV1. Nature of the test: Oncolead sulforhodamin B growth inhibition, 22RV1. The class given is cell-based. The note with it: Homo sapiens, sulforhodamin B assay, 72 and 120 h treatment, read-out: GI50 range 22RV1. On the procedure:
(§1) Cell growth was assessed by measuring protein content using sulforhodamin B. Growth inhibition was calculated by (TCMD−T0)/TNCT72h−T0)*100% with TCMD is the tumor growth at 72 h with the respective compound concentration. To is the protein content of the cell line before treatment and TNCT72h is the tumor growth of the DMSO control.

For test [2], the system named is prostate cancer cell line PC3. Nature of the test: Oncolead sulforhodamin B growth inhibition, PC3. Format: cell-based. The note with it: sulforhodamin B assay; 72 and 120 h treatment; read-out: GI50 range PC3. On the procedure:
as §1

In test [3] the test system is prostate cancer cell line DU145. Description: Oncolead sulforhodamin B growth inhibition, DU145. The class given is cell-based. The note with it: Homo sapiens, DU-145; sulforhodamin B assay; 72 and 120 h treatment; read-out: GI50 range DU145. On the procedure: as §1
Test [4] concerns prostate cancer cell line LNCAP. Description: Oncolead sulforhodamin B growth inhibition, LNCAP. Format: cell-based. The note with it: Homo sapiens, sulforhodamin B assay, 72 and 120 h treatment, read-out: GI50 range LNCAP. On the procedure:
as §1

Another test has as its system AR-FL protein. Description: Androgen receptor protein expression (western blot) in 22Rv1: AR-FL. The class given is cell-based, human. As to conditions: 22Rv1, 6 μM, 48 h; for AR-FL protein level: western blot quantification. On the procedure: After 48 h, cell were lysed using cell extraction buffer (Life Technologies #FNN0011) for western blot. […] The membrane is then incubation for 1 hour in blocking buffer (5% milk in 20 mM Tris, 150 mM NaCl, pH 7.5, 0.05% Tween 20 [TBS-T]). After this incubation, the primary antibody is added and incubated overnight at 4° C. After washing, the membrane was incubated with the secondary antibody for 1 h. Visualization of the bands was performed using the femto maximum sensitivity substrate reagent and the luminescence signal recorded with the Fusion FX7 (Vilber). For protein quantification, InageJ was used.

In a further test the test system is CAMKK2 mRNA. Description: Expression of AR target genes (qRT-PCR) in 22Rv1: CAMKK2. The note with it: 22Rv1, 1 μM, 48h; relative to vehicle control (DMSO). The class given is cell-based. On the procedure:
The prostate cancer cell line 22Rv1 was treated for 48h with 1 μM Example compound 1, 1/1, 2/1, 2/2, 2/3, 2/4, 2/5, 2/6, 2/7, 2/8, 2/9 and 2/10 and reference compounds SR2211 and XY018. RNA was extracted using the RNA isolation kit XS (Macherey-Nagel) and following the manufacture's manual. RNA quantity was measured with the Nanodrop before reverse transcription using Superscript II (Invitrogen #100004925). For the quantitative real-time PCR with SYBR-Green (Qiagen #204074), the following primers were used:
qRT-PCR was performed using SYBR-Green (Qiagen #204074) reagents in a PCR cycler (Gorbett Research) Rotor Gene RG3000 with the following program: denaturation for 5′ at 95° C.; 40 cycles of 20″ at 95° C. and 15″ at 60° C.″ and at the end of the last cycle, the melting temperature of the products was determined by gradually increasing from 60° C. to 99° C. CT values from all samples were normalized to reference (housekeeping) genes using the mean CT value of the GAPDH and YWHAZ (reference genes). Next the values are put relative to the untreated control (vehicle/DMSO).

The next test deals with T1, RORγt (Homo sapiens, UniProt P51449).
T1 sequence (P51449 269-518 limits assumed): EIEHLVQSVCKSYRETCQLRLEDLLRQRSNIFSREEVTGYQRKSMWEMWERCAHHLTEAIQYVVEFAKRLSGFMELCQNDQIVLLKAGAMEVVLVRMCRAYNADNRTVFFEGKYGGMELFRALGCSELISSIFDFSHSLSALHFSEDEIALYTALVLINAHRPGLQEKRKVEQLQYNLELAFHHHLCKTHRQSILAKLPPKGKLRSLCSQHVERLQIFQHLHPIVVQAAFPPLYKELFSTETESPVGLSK
Description: RORγt inhibition, Indigo Biosciences Human RAR-related Orphan Receptor, Gamma Reporter Assay System. The note with it: luciferase reporter cells, 22-24 h incubation; read-out: IC50 range, RORγt assay. The class given is cell-based. On the procedure:
The in vitro inhibition of RORγt was measured using Indigo Biosciences Human RAR-related Orphan Receptor, Gamma Reporter Assay System (Product #11304001-32) as described in the technical manual. In brief, 200 μL of Reporter Cells is dispensed into wells of the assay plate and preincubated for 4-6 h. Following the pre-incubation period, culture media are discarded and 200 μL/well of the prepared 1×-concentration treatment media are added. Following 22-24 h incubation, treatment media are discarded and Luciferase Detection Reagent is added. The intensity of light emission (in units of ‘Relative Light Units’; RLU) from each assay well is quantified using a plate-reading luminometer. Average values of RLU were determined for each treatment concentration. Non-linear regression analyses were performed and IC50 values determined using GraphPad Prism software. Provided inverse-agonists ursolic acid served as positive control.

pIC50: −log10 of the molar value. Where only a bound is given, the exact number is not on record here.

For `CC(C)(O)CCn1ncc(-c2onc(-c3c(F)cccc3Cl)c2-c2ncccn2)c1C(F)(F)F` [2/8], the figures for the negative-log IC50 (pIC50) with IL-17A and at RORγt were above 7.60 and 7.00 to 8.00, respectively. The GI50 in test [1] is below 0.025 µM; in test [2] it was below 0.025 µM; in test [3], below 0.025 µM; in test [4], 0.1 to 5 µM. Moreover, in the test on AR-FL protein, the “AR-FL protein levels” value is “strong reduction”. In the test on AR-FL protein, the AR-FL protein level was determined as 0.421. The “CAMKK2 mRNA expression” value with CAMKK2 mRNA is given as 1.149.
As to `COC(=O)c1c(-c2c(F)cccc2Cl)noc1-c1cnn(-c2cccc(Cl)c2)c1C(F)(F)F` [Example 1, Methyl 3-(2-chloro-6-fluorophenyl)-5-(1-(3-chlorophenyl)-5-(trifluoromethyl)-1H-pyrazol-4-yl)isoxazole-4-carboxylate], the figures for the pIC50 in the test on IL-17A and on RORγt were above 7.60 and above 8.00, respectively. Moreover, the GI50 in test [1] is below 0.025 µM; in test [2], below 0.025 µM; in test [3] it was below 0.025 µM; in test [4] it was 0.025 to 0.1 µM. For the same compound, in the test on AR-FL protein, the “AR-FL protein levels” value is reported as “strong reduction”. For the same compound, in the test on AR-FL protein, the AR-FL protein level was determined as 0.474. Further, the “CAMKK2 mRNA expression” value in the test on CAMKK2 mRNA was determined as 0.884.
As for `Fc1cccc(Cl)c1-c1noc(-c2cnn(-c3cccc(Cl)c3)c2C(F)(F)F)c1-c1nccs1` [Example 1/1], the figures for the pIC50 in the test on IL-17A and at RORγt were above 7.60 and above 8.00, respectively. In addition, the GI50 in test [1], in test [2], in test [3] and in test [4] was below 0.025 µM throughout. Moreover, in the test on AR-FL protein, the “AR-FL protein levels” value is given as “strong reduction”. In the test with AR-FL protein, this compound returned an AR-FL protein level of 0.482. In the test on CAMKK2 mRNA, the “CAMKK2 mRNA expression” value is on record as 0.883.

Source of the values: patent US20240368145A1, “METHODS FOR TREATING CANCER” (IMMUNIC AG, priority 2021, published 2024).
